# Data taken from patent US8569495B2, “Anthelmintic agents and their use” (Intervet International B.V., priority 2007, dated 2013).
# Test system: Ascaridia galli (L3) and Oesophagostomum dentatum (L3 and L4)
# Assay: In vitro anthelmintic activity against larval stages of Ascaridia galli and Oesophagostomum dentatum (MEC)
# Conditions: Ascaridia galli, in vitro; A. galli L3, O. dentatum L3 and L4; 20 larvae per well; microscopic examination; read-out: minimum effective concentration (MEC) against one or more of the tested nematodes
row,Structure (SMILES),minimal effective concentration
1,Cc1ccc(N2CCN(C(=O)COC3CCC(Nc4ccc([N+](=O)[O-])c(C(F)(F)F)c4)CC3)CC2)c(C)c1 (centres unmarked) [Example 67],< 1 µM
2,O=C(COC1CCC(Nc2ccc([N+](=O)[O-])c(C(F)(F)F)c2)CC1)N1CCC(c2ccc(Cl)cc2)CC1 (centres unmarked) [Example 73],< 1 µM
3,N#Cc1ccc(NC2CCC(OCC(=O)N3CCN(c4ccc(Cl)cc4)CC3)CC2)cc1C(F)(F)F (centres unmarked) [Example 88],< 1 µM
4,O=C(COC1CCC(Nc2ccc(OC(F)(F)F)c(C(F)(F)F)c2)CC1)N1CCN(c2ccc(Cl)cc2)CC1 (centres unmarked) [Example 90],< 1 µM
5,O=C(NCC1CCC(Nc2ccc([N+](=O)[O-])c(C(F)(F)F)c2)CC1)C1CCN(c2ccc(Cl)cc2)CC1 (centres unmarked) [Example 107],< 7 µM
6,CN(CC1CCC(Nc2ccc([N+](=O)[O-])c(C(F)(F)F)c2)CC1)C(=O)C1CCN(c2ccc(C(F)(F)F)cc2)CC1 (centres unmarked) [Example 111],< 1 µM
7,O=C(NCC1CCC(Nc2ccc([N+](=O)[O-])c(C(F)(F)F)c2)CC1)C1CCN(c2ccc(F)cc2)CC1 (centres unmarked) [Example 113],< 7 µM
8,CC(C)(C)c1ccc(N2CCN(CCOC3CCC(Nc4ccc([N+](=O)[O-])c(C(F)(F)F)c4)CC3)CC2)cc1 (centres unmarked) [Example 116],< 1 µM
9,O=[N+]([O-])c1ccc(NC2CCC(OCCN3CCN(c4ccc(C(F)(F)F)cc4)CC3)CC2)cc1C(F)(F)F (centres unmarked) [Example 119],< 1 µM
10,O=C(NCC1CCN(c2ccc(C(F)(F)F)cc2)CC1)C1CCC(Nc2ccc([N+](=O)[O-])c(C(F)(F)F)c2)CC1 (centres unmarked) [Example 120],< 1 µM
11,CC(C)(C)c1ccc(N2CCC(CNC(=O)C3CCC(Nc4ccc([N+](=O)[O-])c(C(F)(F)F)c4)CC3)CC2)cc1 (centres unmarked) [Example 122],< 1 µM
12,Cc1ccc(N2CCC(CNC(=O)C3CCC(Nc4ccc([N+](=O)[O-])c(C(F)(F)F)c4)CC3)CC2)cc1 (centres unmarked) [Example 123],< 1 µM
13,CCOc1ccc(N2CCC(CNC(=O)C3CCC(Nc4ccc([N+](=O)[O-])c(C(F)(F)F)c4)CC3)CC2)cc1 (centres unmarked) [Example 125],< 1 µM
14,CN(CC1CCN(c2ccc(C(C)(C)C)cc2)CC1)C(=O)C1CCC(Nc2ccc([N+](=O)[O-])c(C(F)(F)F)c2)CC1 (centres unmarked) [Example 132],< 1 µM
15,CCOc1ccc(N2CCC(CN(C)C(=O)C3CCC(Nc4ccc([N+](=O)[O-])c(C(F)(F)F)c4)CC3)CC2)cc1 (centres unmarked) [Example 133],< 1 µM
16,CN(CC1CCC(Nc2ccc([N+](=O)[O-])c(C(F)(F)F)c2)CC1)C(=O)N1CCN(c2ccc(C(C)(C)C)cc2)CC1 (centres unmarked) [Example 141],< 1 µM
17,CC(C)(C)c1ccc(N2CCN(C(=O)NCC3CCC(Nc4ccc([N+](=O)[O-])c(C(F)(F)F)c4)CC3)CC2)cc1 (centres unmarked) [Example 143],< 1 µM
18,O=C(NCC1CCC(Nc2ccc([N+](=O)[O-])c(C(F)(F)F)c2)CC1)N1CCN(c2ccc(C(F)(F)F)cc2)CC1 (centres unmarked) [Example 145],< 1 µM
19,O=C(COC1CCC(Nc2ccc([N+](=O)[O-])c(C(F)(F)F)c2)CC1)N1CC2CC1CN2c1ccc(C(F)(F)F)cc1 (centres unmarked) [Example 146],< 1 µM
20,O=C(COC1CCC(Nc2ccc([N+](=O)[O-])c(C(F)(F)F)c2)CC1)N1CCCN(c2ccc(C(F)(F)F)cc2)CC1 (centres unmarked) [Example 149],< 1 µM
21,O=C(COC1CCC(Nc2ccc([N+](=O)[O-])c(C(F)(F)F)c2)CC1)N1CCCN(c2ccc(Cl)cc2)CC1 (centres unmarked) [Example 150],< 1 µM
22,CC(C)(C)c1ccc(N2CCN(C(=S)COC3CCC(Nc4ccc(OC(F)(F)F)c(C(F)(F)F)c4)CC3)CC2)cc1 (centres unmarked) [Example 206],< 1 µM
23,COc1ccc(N2CCN(C(=S)COC3CCC(Nc4ccc([N+](=O)[O-])c(C(F)(F)F)c4)CC3)CC2)cc1OC (centres unmarked) [Example 207],< 1 µM
24,N#Cc1ccc(NC2CCC(OCC(=S)N3CCN(c4ccc(Cl)cc4)CC3)CC2)cc1C(F)(F)F (centres unmarked) [Example 209],< 1 µM
25,O=[N+]([O-])c1ccc(NC2CCC(OCC(=S)N3CCN(c4ccc(Cl)c(C(F)(F)F)c4)CC3)CC2)cc1C(F)(F)F (centres unmarked) [Example 221],< 1 µM

# Same assay, conditions: Ascaridia galli, in vitro; A. galli L3, O. dentatum L3 and L4; 20 larvae per well; microscopic examination; read-out: minimum effective concentration (MEC) against two or more of the tested nematodes
row,Structure (SMILES),minimal effective concentration
1,"N#Cc1ccc(N[C@H]2CC[C@H](OCC(=O)N3CCN(c4ccc(OCc5ccccc5)cc4)CC3)CC2)cc1C(F)(F)F [Example 25, 4-(trans-4-{2-[4-(4-benzyloxy-phenyl)-piperazin-1-yl]-2-oxoethoxy}-cyclohexylamino)-2-trifluoromethyl-benzonitrile]",< 1 µM
2,"CC(C)(C)c1ccc(N2CCN(C(=O)CO[C@H]3CC[C@H](Nc4ccc(C#N)c(C(F)(F)F)c4)CC3)CC2)cc1 [Example 27, 4-(trans-4-{2-[4-(4-tert-butyl-phenyl)-piperazin-1-yl]-2-oxo-ethoxy}-cyclohexylamino)-2-trifluoromethyl-benzonitrile]",< 1 µM
3,"O=C(CC[C@H]1CC[C@H](Nc2ccc([N+](=O)[O-])c(C(F)(F)F)c2)CC1)N1CCN(c2ccc(C(F)(F)F)cc2)CC1 [Example 41, 3-(trans-4-(4-nitro-3-trifluoromethyl-phenylamino)-cyclohexyl)-1-(4-(4-trifluoromethyl-phenyl)-piperazin-1-yl)-propan-1-one]",< 1 µM
4,"CC(C)(C)c1ccc(N2CCC(C(=O)NC[C@H]3CC[C@H](Nc4ccc([N+](=O)[O-])c(C(F)(F)F)c4)CC3)CC2)cc1 [Example 54, 1-(4-tert-butyl-phenyl)-N-[trans-4-(4-nitro-3-trifluoromethyl-phenylamino)-cyclohexylmethyl]-piperidine-4-carboxamide]",< 1 µM
5,O=C(COC1CCC(Nc2ccc([N+](=O)[O-])c(C(F)(F)F)c2)CC1)N1CCN(c2ccc(Cl)cc2)CC1 (centres unmarked) [Example 63],< 1 µM
6,N#Cc1ccc(N2CCN(C(=O)COC3CCC(Nc4ccc([N+](=O)[O-])c(C(F)(F)F)c4)CC3)CC2)cc1C(F)(F)F (centres unmarked) [Example 64],< 1 µM
7,O=C(COC1CCC(Nc2ccc([N+](=O)[O-])c(C(F)(F)F)c2)CC1)N1CCN(c2ccc(F)cc2F)CC1 (centres unmarked) [Example 71],< 1 µM
8,CC(C)COc1ccc(N2CCN(C(=O)COC3CCC(Nc4ccc([N+](=O)[O-])c(C(F)(F)F)c4)CC3)CC2)cc1 (centres unmarked) [Example 82],< 1 µM
9,O=C(COC1CCC(Nc2ccc(Cl)c(C(F)(F)F)c2)CC1)N1CCN(c2ccc(OCc3ccccc3)cc2)CC1 (centres unmarked) [Example 97],< 1 µM
10,CC(C)(C)c1ccc(N2CCN(C(=O)COC3CCC(Nc4ccc(SC(F)(F)F)cc4)CC3)CC2)cc1 (centres unmarked) [Example 103],< 1 µM
11,O=C(NCC1CCN(c2ccc(C(F)(F)F)cc2)CC1)C1CCC(Nc2ccc([N+](=O)[O-])c(C(F)(F)F)c2)CC1 (centres unmarked) [Example 120],< 1 µM
12,CC(C)(C)c1ccc(N2CCC(CNC(=O)C3CCC(Nc4ccc([N+](=O)[O-])c(C(F)(F)F)c4)CC3)CC2)cc1 (centres unmarked) [Example 122],< 1 µM
13,CN(CC1CCN(c2ccc(C(C)(C)C)cc2)CC1)C(=O)C1CCC(Nc2ccc([N+](=O)[O-])c(C(F)(F)F)c2)CC1 (centres unmarked) [Example 132],< 1 µM
14,CCOc1ccc(N2CCC(CN(C)C(=O)C3CCC(Nc4ccc([N+](=O)[O-])c(C(F)(F)F)c4)CC3)CC2)cc1 (centres unmarked) [Example 133],< 1 µM
15,CN(CC1CCN(c2ccc(Cl)cc2)CC1)C(=O)C1CCC(Nc2ccc([N+](=O)[O-])c(C(F)(F)F)c2)CC1 (centres unmarked) [Example 136],< 1 µM
16,O=C(NCC1CCC(Nc2ccc([N+](=O)[O-])c(C(F)(F)F)c2)CC1)N1CCN(c2ccc(C(F)(F)F)cc2)CC1 (centres unmarked) [Example 145],< 1 µM
17,O=C(COC1CCC(Nc2ccc([N+](=O)[O-])c(C(F)(F)F)c2)CC1)N1CCCN(c2ccc(C(F)(F)F)cc2)CC1 (centres unmarked) [Example 149],< 1 µM
18,O=C(COC1CCC(Nc2ccc([N+](=O)[O-])c(C(F)(F)F)c2)CC1)N1CCCN(c2ccc(Cl)cc2)CC1 (centres unmarked) [Example 150],< 1 µM
19,O=C(COC1CCC(Nc2ccc([N+](=O)[O-])c(C(F)(F)F)c2)CC1)N1CCN(c2ccc(C(F)(F)F)cc2)C(=O)C1 (centres unmarked) [Example 158],< 1 µM
20,N#Cc1ccc(NC2CCC(OCC(=O)N3CCCN(c4ccc(SC(F)(F)F)cc4)CC3)CC2)cc1C(F)(F)F (centres unmarked) [Example 160],< 1 µM
21,CC(C)(C)c1ccc(C2CCN(C(=O)COC3CCC(Nc4ccc(C#N)c(C(F)(F)F)c4)CC3)CC2)cc1 (centres unmarked) [Example 166],< 1 µM
22,CCCc1ccc(C2CCN(C(=O)COC3CCC(Nc4ccc(C#N)c(C(F)(F)F)c4)CC3)CC2)cc1 (centres unmarked) [Example 168],< 1 µM
23,CSc1ccc(NC2CCN(C(=O)COC3CCC(Nc4ccc([N+](=O)[O-])c(C(F)(F)F)c4)CC3)CC2)cc1C(F)(F)F (centres unmarked) [Example 188],< 1 µM
24,O=C(COC1CCC(Nc2ccc([N+](=O)[O-])c(C(F)(F)F)c2)CC1)N1CCC(Nc2ccc([N+](=O)[O-])c(C(F)(F)F)c2)CC1 (centres unmarked) [Example 189],< 1 µM
25,CC(C)(C)c1ccc(N2CCN(C(=S)COC3CCC(Nc4ccc(OC(F)(F)F)c(C(F)(F)F)c4)CC3)CC2)cc1 (centres unmarked) [Example 202],< 1 µM
26,O=[N+]([O-])c1ccc(NC2CCC(CCC(=S)N3CCN(c4ccc(C(F)(F)F)cc4)CC3)CC2)cc1C(F)(F)F (centres unmarked) [Example 213],< 1 µM
27,CC(C)(C)c1ccc(N2CCN(C(=S)COC3CCC(Nc4ccc(Cl)c(C(F)(F)F)c4)CC3)CC2)cc1 (centres unmarked) [Example 215],< 1 µM

# Same assay, conditions: Ascaridia galli, read-out: minimum effective concentration (MEC) against one or more of the tested nematodes, in vitro; A. galli L3, O. dentatum L3 and L4; 20 larvae per well; microscopic examination
row,Structure (SMILES),minimal effective concentration
1,O=C(COC1CCC(Nc2ccc([N+](=O)[O-])c(C(F)(F)F)c2)CC1)NCCCNc1ccc(C(F)(F)F)cc1 (centres unmarked) [Example 152],< 1 µM

# Same assay, conditions: Ascaridia galli, read-out: minimum effective concentration (MEC) against two or more of the tested nematodes, in vitro; A. galli L3, O. dentatum L3 and L4; 20 larvae per well; microscopic examination
row,Structure (SMILES),minimal effective concentration
1,"O=C(CO[C@H]1CC[C@H](Nc2ccc([N+](=O)[O-])c(C(F)(F)F)c2)CC1)N1CCN(c2ccc(OCc3ccc(C(F)(F)F)cc3)cc2)CC1 [Example 20, 2-[trans-4-(4-nitro-3-trifluoromethyl-phenylamino)-cyclohexyloxy]-1-{4-[4-(4-trifluoromethyl-benzyloxy)-phenyl]-piperazin-1-yl}-ethanone]",< 1 µM
2,"O=C(CO[C@H]1CC[C@H](Nc2ccc([N+](=O)[O-])c(C(F)(F)F)c2)CC1)N1CCC(c2ccc(F)cc2F)CC1 [Example 22, 1-[4-(2,4-difluoro-phenyl)-piperidin-1-yl]-2-[trans-4-(4-nitro-3-trifluoromethyl-phenylamino)-cyclohexyloxy]-ethanone]",< 1 µM
3,CN(c1ccc([N+](=O)[O-])c(C(F)(F)F)c1)C1CCC(OCC(=S)N2CCN(c3ccc(C(F)(F)F)cc3)CC2)CC1 (centres unmarked) [Example 218],< 1 µM
